Patent US20050245399A1, “Pyrazole derivatives as herbicidal compositions containing them” (ISHIHARA SANGYO KAISHA, LTD., priority 2004, published 2005)

Key:
Type in all cases: in vivo
[1] = test system: rice (Oryza sativa L.), ORYSA; test: Test Example 2 post-emergence (foliage treatment) herbicidal activity, ORYSA; details: 63 g a.i./ha
Summary of the method: (§1)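 Greenhouse pot test with upland field soil. Treatment: foliage spray, active ingredient at a predetermined amount, 500 L/ha, spreader 0.1% (v/v); leaf stage 0.1-1.5 (AMARE), 1.1-2.1 (ECHCG), 1.0-2.0 (DIGSA), 1.0-2 (ORYSA). Endpoint: visual % control, d20-23.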

[2] = test system: japanese ribbon wapato (Sagittaria pygmaea: SA GPY); test: Test Example 3 water application herbicidal activity (paddy), SAGPY; details: 63 g a.i./ha, water application under submerged condition, tubers planted, visually observed 14th day after application; 0 = untreated control, 100 = complete kill
Excerpt: (§2) Paddy field soil was put into a 1/1,000,000 ha pot and seeds of barnyardgrass (Echinochiloa oryzicola: ECHOR) and japanese bulrush (Scirpus juncoides: SCPJO) were sown and slightly covered with soil. Then the pot was left to stand still in a greenhouse in a state where the depth of flooding water was from 0.5 to 1 cm, and one day later, tubers of japanese ribbon wapato (Sagittaria pygmaea: SA GPY) were planted. Thereafter, the depth of flooding water was maintained at a level of from 3 to 4 cm, and when barnyardgrass and japanese bulrush reached a 0.5 leaf stage, an aqueous diluted solution of a wettable powder or emulsifiable concentrate having the compound of the present invention formulated in accordance with a usual formulation method, was uniformly applied under submerged condition by a pipette so that the dose of the active ingredient would be at a predetermined level. On the other hand, paddy filed soil was put into a 1/1,000,000 ha pot and puddled and leveled, and the depth of flooding water was from 3 to 4 cm. One day later, rice (Oryza sativa L.: ORYSA) of 2 leaf stage was transplanted in a depth of 3 cm. On the 4th day after the transplantation, the compound of the present invention was applied in the same manner as described above. On the 14th day after the application of the herbicide, the growth of barnyardgrass, japanese burlush and japanese ribbon wapato was visually observed and on the 21st day after the application of the herbicide, the growth of rice was visually observed, and the herbicidal effects were evaluated by growth controlling degrees (%) ranging from 0 (equivalent to the untreated control) to 100 (complete kill), whereby the results shown in Table 6, were obtained. Compound Nos. in Table 6 correspond to Compound Nos. in Table 1 and 2 given hereinbefore.

[3] = test system: barnyardgrass (Echinochloa crus-galli L.), ECHCG; test: Test Example 2 post-emergence (foliage treatment) herbicidal activity, ECHCG; details: 63 g a.i./ha
Summary of the method: as §1

[4] = test system: corn (Zea mays L.), ZEAMX; test: Test Example 2 post-emergence (foliage treatment) herbicidal activity, ZEAMX; details: 63 g a.i./ha
Summary of the method: (§3)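 Each species was evaluated for growth suppression by eye, 0% matching untreated and 100% meaning death, some 20 to 23 days after a single post-emergence foliar treatment applied in 500 L/ha of water carrying 0.1% (v/v) agricultural spreader.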

[5] = test system: barnyardgrass (Echinochiloa oryzicola: ECHOR); test: Test Example 3 water application herbicidal activity (paddy), ECHOR; details: 63 g a.i./ha, water application under submerged condition at 0.5 leaf stage, visually observed 14th day after application; 0 = untreated control, 100 = complete kill
Excerpt: as §2

[6] = test system: crabgrass (Digitaria sanguinalis L.): DIGSA; test: Test Example 1 pre-emergence herbicidal activity, DIGSA; details: Rate 63 g a.i./ha, visually observed 20th to 23rd day after application
Summary of the method: (§4)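 Compound was delivered by small sprayer to sown upland soil one day after sowing, before emergence, at 500 L/ha spray volume. Plant growth was assessed visually around 3 weeks later (days 20–23), 100% denoting complete kill.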

[7] = test system: green foxtail (Setaria viridis L.), SETVI; test: Test Example 2 post-emergence (foliage treatment) herbicidal activity, SETVI; details: 63 g a.i./ha
Summary of the method: as §3

[8] = test system: prickly sida (Sida spinosa L.): SEDSP; test: Test Example 1 pre-emergence herbicidal activity, SIDSP; details: Rate 63 g a.i./ha, visually observed 20th to 23rd day after application
Summary of the method: as §4

[9] = test system: rice (Oryza sativa L.): ORYSA; test: Test Example 1 pre-emergence herbicidal activity, ORYSA; details: Rate 63 g a.i./ha, visually observed 20th to 23rd day after application
Summary of the method: as §4

[10] = test system: redroot pigweed (Amaranthus retroflexus L.): AMARE; test: Test Example 1 pre-emergence herbicidal activity, AMARE; details: Rate 63 g a.i./ha, visually observed 20th to 23rd day after application
Summary of the method: as §4

[11] = test system: green foxtail (Setaria viridis L.): SETVI; test: Test Example 1 pre-emergence herbicidal activity, SETVI; details: Rate 63 g a.i./ha, visually observed 20th to 23rd day after application
Summary of the method: as §4

[12] = test system: wheat (Triticum aestivum L.), TRZAX; test: Test Example 2 post-emergence (foliage treatment) herbicidal activity, TRZAX; details: 63 g a.i./ha
Summary of the method: as §3

[13] = test system: corn (Zea mays L.): ZEAMX; test: Test Example 1 pre-emergence herbicidal activity, ZEAMX; details: Rate 63 g a.i./ha, visually observed 20th to 23rd day after application
Summary of the method: as §4

[14] = test system: barnyardgrass (Echinochloa crus-galli L.): ECHCG; test: Test Example 1 pre-emergence herbicidal activity, ECHCG; details: Rate 63 g a.i./ha, visually observed 20th to 23rd day after application
Summary of the method: as §4

[15] = test system: soybean (Glycine max Merr.): GLXMA; test: Test Example 1 pre-emergence herbicidal activity, GLXMA; details: Rate 63 g a.i./ha, visually observed 20th to 23rd day after application
Summary of the method: as §4

[16] = test system: velvetleaf (Abutilon theophrasti): ABUTH; test: Test Example 1 pre-emergence herbicidal activity, ABUTH; details: Rate 63 g a.i./ha, visually observed 20th to 23rd day after application
Summary of the method: as §4

[17] = test system: prickly sida (Sida spinosa L.), SIDSP; test: Test Example 2 post-emergence (foliage treatment) herbicidal activity, SIDSP; details: 63 g a.i./ha
Summary of the method: as §3

[18] = test system: soybean (Glycine max Merr.), GLXMA; test: Test Example 2 post-emergence (foliage treatment) herbicidal activity, GLXMA; details: 63 g a.i./ha
Summary of the method: as §3

[19] = test system: wheat (Triticum aestivum L.): TRZAX; test: Test Example 1 pre-emergence herbicidal activity, TRZAX; details: Rate 63 g a.i./ha, visually observed 20th to 23rd day after application
Summary of the method: as §4

[20] = test system: velvetleaf (Abutilon theophrasti), ABUTH; test: Test Example 2 post-emergence (foliage treatment) herbicidal activity, ABUTH; details: 63 g a.i./ha
Summary of the method: as §3

[21] = test system: japanese bulrush (Scirpus juncoides: SCPJO); test: Test Example 3 water application herbicidal activity (paddy), SCPJO; details: 63 g a.i./ha, water application under submerged condition at 0.5 leaf stage, visually observed 14th day after application; 0 = untreated control, 100 = complete kill
Excerpt: as §2

[22] = test system: crabgrass (Digitaria sanguinalis L.), DIGSA; test: Test Example 2 post-emergence (foliage treatment) herbicidal activity, DIGSA; details: 63 g a.i./ha
Summary of the method: as §1

[23] = test system: redroot pigweed (Amaranthus retroflexus L.), AMARE; test: Test Example 2 post-emergence (foliage treatment) herbicidal activity, AMARE; details: 63 g a.i./ha
Summary of the method: as §1

Structure (SMILES) | growth controlling degree, ORYSA [1] [%] | growth controlling degrees (%) SAGPY [2] [%] | growth controlling degree, ECHCO [3] [%] | growth controlling degree, ZEAMX [4] [%] | growth controlling degrees (%) ECHOR [5] [%] | Pre-emergence Herbicidal Activity DIGSP (growth controlling degree) [6] [%] | growth controlling degree, SETVI [7] [%] | Pre-emergence Herbicidal Activity SIDSP (growth controlling degree) [8] [%] | Pre-emergence Herbicidal Activity ORYSA (growth controlling degree) [9] [%] | Pre-emergence Herbicidal Activity AMARE (growth controlling degree) [10] [%] | Pre-emergence Herbicidal Activity SETVI (growth controlling degree) [11] [%] | growth controlling degree, TRZAX [12] [%] | Pre-emergence Herbicidal Activity ZEAMX (growth controlling degree) [13] [%] | Pre-emergence Herbicidal Activity ECHCG (growth controlling degree) [14] [%] | Pre-emergence Herbicidal Activity GLXMA (growth controlling degree) [15] [%] | Pre-emergence Herbicidal Activity ABUTH (growth controlling degree) [16] [%] | growth controlling degree, SIDSP [17] [%] | growth controlling degree, GLXMA [18] [%] | Pre-emergence Herbicidal Activity TRZAX (growth controlling degree) [19] [%] | growth controlling degree, ABUTH [20] [%] | also measured
COc1c(Cl)cc(F)c(-c2nn(C)c(OC(F)F)c2Cl)c1NC(=O)OCCCl [Compound 1-68] | 60 | 80 | 70 | 50 | 100 | 100 | 100 | 100 | 40 | 100 | 100 | 20 | 10 | 95 | 0 | 100 | 100 | 60 | 40 | 100 | growth controlling degrees (%) SCPJO [21]: 95%
COc1c(Cl)cc(F)c(-c2nn(C)c(OC(F)F)c2Cl)c1NC(=O)OCc1cccnc1 [Compound 1-70] | 95 | 100 | 80 | 80 | 100 | 80 |  | 100 | 40 | 100 | 70 | 30 | 0 | 90 | 0 | 100 | 100 | 80 | 0 | 100 | growth controlling degree, DIGSP [22]: 60%; growth controlling degree, AMARE [23]: 100%; growth controlling degrees (%) SCPJO [21]: 80%
COc1c(Cl)cc(F)c(-c2nn(C)c(OC(F)F)c2Cl)c1NC(=O)C=Cc1ccc(C)cc1 [Compound 1-255] | 40 |  | 50 | 20 |  | 10 | 50 | 0 | 0 | 70 | 10 | 10 | 0 | 0 | 0 | 0 | 100 | 50 | 0 | 100 | growth controlling degree, DIGSP [22]: 30%; growth controlling degree, AMARE [23]: 100%
